Experimental data from patent publication US11285167B2, “Synergistic nutritional neuroprotective compositions for ameliorating neural dysfunction” (CELAGENEX RESEARCH (INDIA) PVT. LTD., priority 2019, dated 2022).

Columns and labels:
[1] = tested on: Major depression disorder in Wistar rats; assay: Overall behavioral evaluation in major depression disorder study (forced swim and open field tests); format: in vivo; details: oral 7 consecutive days
[2] = tested on: Valproic acid-induced autism disorder in albino Wistar rats; assay: Open field test (hyperactivity) in Valproic acid-induced autism disorder; format: in vivo; details: for No. of squares visited for 6 mins: PND 40, VPA 400 mg/kg, oral daily PND 14 to PND 40, mean ± SEM; for Hyperactive behavior / locomotor activity, open field test (in words): PND 40, compared to Disease control or to Group-3 and Group-4
Method: The present study was to evaluate the effect of test substances on Valproic acid induced Autism spectrum disorder in wistar rats. The animals (50 animals) were divided into five groups each group consisting of 10 animals (5 animals per sex). Animals in Group-1 were treated with vehicle (0.5% CMC), Group-2 was treated with Valproic acid (VPA) 400 mg/kg via subcutaneous route, Group-3, Group-4 and Group-5 were treated with test substance Agmatine Sulphate (25.83 mg/kg), Nicotinamide Riboside chloride (6.46 mg/kg) and Agmatine Sulphate+Nicotinamide Riboside chloride (25.83 mg/kg+6.46 mg/kg) respectively, according to the body weight of animals. At the end of the experimental period, blood was collected from each group for biochemical analyses. On postnatal day 40 (PND 40), all the animals were exposed to the Morris water maze test and Open field test for specific time periods to determine the autism-like behaviors of the test substances. […] The experiment was performed in 14-day old male and female off springs. The weight of the rat pups on the first day of the experiment was 20-40 grams. Sodium Valproate at dose of 400 mg/kg was freshly prepared and administered via subcutaneous route to the rat pups on postnatal day 14 (PND 14). All the animals were divided into five groups and each group contained the same amount of male and female offspring (5 males and 5 females, per group). Animals in Group-1 served as Normal control and were treated with 0.5% CMC, Group-2 served as Disease control and were treated with VPA (400 mg/kg) via intraperitoneally (i.p.), whereas Group-3 was treated with Test-1 Agmatine Sulphate (25.83 mg/kg), Group-4 was treated with Test-2 Nicotinamide Riboside chloride (6.46 mg/kg) and Group-5 was treated with Test-1+Test-2 Agmatine Sulphate+Nicotinamide Riboside chloride (25.83 mg/kg+6.46 mg/kg). The assigned test substances were administered once daily from PND 14 to PND 40. In addition, behaviors of experimental animals were determined via Morris water maze and open field test. […] The dose volume administered to each rat was 10 ml/kg/day. Similarly, 0.5% CMC for Normal control and Disease control groups was administered orally at the same dose volume for a minimum of 26 consecutive days. The dose volume was calculated for individual animals on the first day of the treatment and was re-calculated according to the recent body weights recorded during the study. Daily individual dose volumes were recorded in the study records. All the animals were exposed to open field tests after the oral treatment with various tests, standard and control treatment in respective groups. The open field apparatus consisted of a wooden field of half square meter with a series of squares alternatively painted in black and white. […] Animals were treated with vehicle and the drug and were placed in the middle of the open field. Then the number of squares visited by the animals was counted for a 6 minute session. The number of entries by respective groups was recorded and used to determine the active time duration of animal post dosing. The determination of the hyperactivity of animals via this test was done on PND 40.

Lactate dehydrogenase = Lactate dehydrogenase (LDH) level in Valproic acid-induced autism disorder; format: in vivo, Albino wistar rats; details: for LDH: VPA 400 mg/kg, oral daily for 26 days, mean ± SEM; for Levels of lactate dehydrogenase (in words): compared to Disease control or to Group-3 and Group-4
Method: The present study was to evaluate the effect of test substances on Valproic acid induced Autism spectrum disorder in wistar rats. The animals (50 animals) were divided into five groups each group consisting of 10 animals (5 animals per sex). Animals in Group-1 were treated with vehicle (0.5% CMC), Group-2 was treated with Valproic acid (VPA) 400 mg/kg via subcutaneous route, Group-3, Group-4 and Group-5 were treated with test substance Agmatine Sulphate (25.83 mg/kg), Nicotinamide Riboside chloride (6.46 mg/kg) and Agmatine Sulphate+Nicotinamide Riboside chloride (25.83 mg/kg+6.46 mg/kg) respectively, according to the body weight of animals. At the end of the experimental period, blood was collected from each group for biochemical analyses. On postnatal day 40 (PND 40), all the animals were exposed to the Morris water maze test and Open field test for specific time periods to determine the autism-like behaviors of the test substances.
The experiment was performed in 14-day old male and female off springs. The weight of the rat pups on the first day of the experiment was 20-40 grams. Sodium Valproate at dose of 400 mg/kg was freshly prepared and administered via subcutaneous route to the rat pups on postnatal day 14 (PND 14). All the animals were divided into five groups and each group contained the same amount of male and female offspring (5 males and 5 females, per group). Animals in Group-1 served as Normal control and were treated with 0.5% CMC, Group-2 served as Disease control and were treated with VPA (400 mg/kg) via intraperitoneally (i.p.), whereas Group-3 was treated with Test-1 Agmatine Sulphate (25.83 mg/kg), Group-4 was treated with Test-2 Nicotinamide Riboside chloride (6.46 mg/kg) and Group-5 was treated with Test-1+Test-2 Agmatine Sulphate+Nicotinamide Riboside chloride (25.83 mg/kg+6.46 mg/kg). The assigned test substances were administered once daily from PND 14 to PND 40. In addition, behaviors of experimental animals were determined via Morris water maze and open field test.
The test item formulations were administered once each day by oral route at the dose levels of 25.83 mg/kg (agmatine sulphate), 6.46 mg/kg (nicotinamide riboside chloride) and 25.83 mg/kg+6.46 mg/kg/day (agmatine sulphate+nicotinamide riboside chloride), to rats of corresponding groups for a minimum of 26 consecutive days at approximately same time each day (±1 hour). The dose volume administered to each rat was 10 ml/kg/day. Similarly, 0.5% CMC for Normal control and Disease control groups was administered orally at the same dose volume for a minimum of 26 consecutive days. The dose volume was calculated for individual animals on the first day of the treatment and was re-calculated according to the recent body weights recorded during the study. Daily individual dose volumes were recorded in the study records.
Lactate dehydrogenase (also called lactic acid dehydrogenase or LDH) is an enzyme found in almost all body tissues. It plays an important role in cellular respiration, the process by which glucose (sugar) from food is converted into usable energy for our cells.

## NC(=O)c1ccc[n+]([C@@H]2O[C@H](CO)[C@@H](O)[C@H]2O)c1.[Cl-] [Nicotinamide Riboside chloride, nicotinamide riboside chloride]
[1]
  Effect on major depression disorder (in words): positive effects on major depression disorder
[2]; Female
  No. of squares visited for 6 mins: 87.20 ± 0.97
[2]; Male
  No. of squares visited for 6 mins: 88.40 ± 0.98
[2]
  Hyperactive behavior / locomotor activity, open field test (in words): significantly decreased hyperactive behavior
Lactate dehydrogenase; Female
  LDH: 275.80 ± 1.71 U/L
Lactate dehydrogenase; Male
  LDH: 274.00 ± 3.11 U/L
Lactate dehydrogenase
  Levels of lactate dehydrogenase (in words): normalized levels of lactate dehydrogenase

## N=C(N)NCCCCN.O=S(=O)(O)O [Agmatine sulphate]
[1]
  Effect on major depression disorder (in words): positive effects on major depression disorder
[2]; Female
  No. of squares visited for 6 mins: 85.40 ± 1.03
[2]; Male
  No. of squares visited for 6 mins: 86.20 ± 2.06
[2]
  Hyperactive behavior / locomotor activity, open field test (in words): significantly decreased hyperactive behavior
Lactate dehydrogenase; Female
  LDH: 272.20 ± 3.34 U/L
Lactate dehydrogenase; Male
  LDH: 268.20 ± 2.56 U/L
Lactate dehydrogenase
  Levels of lactate dehydrogenase (in words): normalized levels of lactate dehydrogenase
